# Experimental data from patent publication US9630914B2, “Multitarget FAAH and COX inhibitors and therapeutical uses thereof” (FONDAZIONE ISTITUTO ITALIANO DI TECNOLOGIA, priority 2012, dated 2017).
# Like-named read-outs stand apart in the source and are kept apart here.
# Columns and labels:
# gastric mucosa = test: Gastric lesions (gastric irritation, ulceration index); type: in vivo; conditions: food-deprived mice
# Text: (§1) Male CD1 mice, weighing 25-30 g, (Charles River, Calco, Italy) were used. Procedures were in accordance with the Ethical Guidelines of the International Association for the Study of Pain and were approved by Italian regulations on protection of animals used for experimental and other scientific purposes (D. M. 116192) as well as with European Economic Community regulations (O. J. of E. C. L 358/1 Dec. 18, 1986). Mice were housed in groups of 5 in ventilated cages containing autoclaved cellulose paper as nesting material, with free access to food and water. They were maintained under a 12 h light/dark cycle (lights on at 08:00 a.m.), at controlled temperature (21±1° C.) and relative humidity (55±10%). The animals are randomly divided in groups of 6 mice. Behavioral testing was performed between 9:00 a.m. and 5:00 p.m. Scientists running the experiments were not aware of the treatment protocol at the time of the test (blind procedure).
# To study the gastric irritation the protocol of Chan et al. (1995) was followed. […] After 4 h, the mice were killed by CO2 asphyxiation. The stomachs were removed, opened, rinsed in PBS, and the stomach lining was photographed. Scoring was done by observers blinded to experimental conditions, as previously reported (Jain et al., 2002): red coloration=0.5; spot ulcers=1; hemorrhagic streaks=1.5. […]
# ovine COX-1 = ovine COX-1 (Ovis aries (Sheep), UniProt P05979); test: In vitro COX assay (COX Inhibitor Screening Assay Kit), COX-1; type: biochemical; conditions: 5 μM arachidonic acid
# Method: (§2) COX activity was measured using a commercial kit (COX Inhibitor Screening Assay Kit—Cayman Chemical N. 560131) which includes both ovine COX-1 and human recombinant COX-2 enzymes. Inhibitors were pre-incubated with either ovine COX-1 or human COX-2 in order to screen isozyme-specific inhibition. Differently than described in the kit protocol, the reaction was carried out in the presence of 5 μM arachidonic acid while for the blank sample (no activity) the two enzymes were inactivated for 40 minutes at 100° C. It was then measured the amount of PGF2α produced by reduction with SnCl2 of COX-derived PGH2, via enzyme immunoassay (EIA) using a PG-specific antibody and competing with a PG-acetylcholinesterase conjugate.
# (§3) Absorbance was measured at 412 nm with a Tecan Infinite M200 plate reader and data were processed according to manufacturer's instructions.
# (§4) The median inhibitory concentrations (IC50) were determined by non-linear regression analysis of the Log [concentration]/response curves generated with mean replicate values using a four parameter Hill equation curve fitting with GraphPad Prism 5 (GraphPad Software Inc., CA-USA).
# [1] = system: carrageenan-induced inflammation and hyperalgesia; test: Carrageenan test (paw edema and thermal hyperalgesia); type: in vivo, mice
# Text: as §1
# The pro-inflammatory agent λ-carrageenan (1% weight-vol^−1 in sterile water, 50 μL) was injected into the left hind paw of slightly restrained mice, and paw volume was measured with a plethysmometer (Ugo Basile, Comerio, Italy), while thermal hyperalgesia was assessed by the method of Hargreaves et al. (1988), measuring the latency to withdraw the hind paw from a focused beam of radiant heat (thermal intensity: infrared 3.0) in a plantar test apparatus (Ugo Basile, Comerio, Italy). Cutoff time was set at 30 s. Withdrawal latencies were measured on both ipsilateral and contralateral paws at various time points after drug administration.
# Drug solutions were prepared immediately before use in saline containing 10% PEG-400 and 10% Tween 80 and orally administered in a volume of 2.5 mL-kg^−1 before intraplantar injection of carrageenan.
# Results are expressed as the mean±S.E.M., or 95% confidence limits (95% CL). Efficacy data were compared using two-way analysis of variance (ANOVA) followed by Bonferroni's test for multiple comparisons. For gastric toxicity, the significance of differences between groups was determined by one-way ANOVA followed by a Bonferroni's test for multiple comparisons.
# FAAH = conditions: literature value; cited from earlier work
# human FAAH-1 = human FAAH-1 (Homo sapiens (Human), UniProt O00519); test: In vitro human FAAH fluorescent assay; type: biochemical; conditions: human FAAH-1 membrane preparation from HEK-293; means of ≧3 experiments
# Method: In Vitro Human FAAH Fluorescent Assay
# Human recombinant FAAH was obtained from a HEK-293 FAAH-1 overexpressing stable cell line. Cells were grown in DMEM medium containing 10% FBS, 1% pen/strep, 1% glutamine and 500 μg/mL G418. To obtain membrane preparation cells were scraped off with cold phosphate-buffered saline (PBS) and collected by centrifugation (500×g, 10 minutes, 4° C.); the cell pellet was re-suspended in 20 mM Tris-HCl pH 7.4, 0.32 M sucrose, disrupted by sonication (10 pulses, 5 times) and centrifuged (800×g, 15 minutes, 4° C.); the collected supernatant was centrifuged at 105,000×g for 1 h at 4° C. and the pellet was re-suspended in PBS.
# The background (no activity) samples were prepared using 180 μL of assay buffer without human FAAH-1 and 10 μL of DMSO. The reaction was then started by the addition of 10 μL of substrate (AMC arachidonyl amide, N. 10005098, Cayman Chemical) dissolved in ethanol and used at a final concentration of 2 μM. The reaction was carried out for 30 minutes at 37° C. and fluorescence was measured with a Tecan Infinite M200 nanoquant plate reader (excitation wavelength 350 nm/emission wavelength 460 nm).
# as §4
# Rat FAAH = Rat FAAH (Rattus norvegicus (Rat), UniProt P97612); test: In vitro rat FAAH radiometric assay; type: biochemical; conditions: rat brain homogenate; means of ≧3 experiments in duplicate
# Method: In Vitro Rat FAAH Radiometric Assay
# Rat FAAH was prepared from male Sprague Dawley rat brains, homogenized in a potter in 20 mM of Tris HCl pH 7.4, 0.32 M sucrose.
# After 10 minutes of pre-incubation with test compounds, the reaction was started by adding of 50 μL of substrate and incubating for 30 min at 37° C. The substrate was prepared in assay buffer in order to achieve the final concentration of 1 μM arachidonoyl ethanolamide (Cayman Chemical N. 90050) and 0.6 nM anandamide [ethanolamine-1-^3H](American Radiolabeled Chemicals Inc., ART. 0626, conc. 1 mCi/mL, S.A. 60 Ci/mmol). The reaction was stopped by adding cold 1:1 CHCl3/MeOH. After 10 minutes of centrifugation (845×g at 4° C.) 600 μL of aqueous phase were transferred into scintillation vials previously filled with 3 mL of scintillation fluid (Ultima Gold™, Perkin Elmer Inc., Cat. 6013329). Radioactivity was measured by liquid scintillation counting (MicroBeta2 LumiJET Perkin Elmer Inc.).
# as §4
# human recombinant COX-2 = human recombinant COX-2 (Homo sapiens (Human), UniProt P35354); test: In vitro COX assay (COX Inhibitor Screening Assay Kit), COX-2; type: biochemical
# Method: as §2, §3, §4
# [2] = oral, 3, 10, 30 and 100 mg/kg, mouse
# [3] = 5 μM arachidonic acid, read-out: human COX-2 IC50
# Chain of human recombinant COX-2 (P35354 18-604): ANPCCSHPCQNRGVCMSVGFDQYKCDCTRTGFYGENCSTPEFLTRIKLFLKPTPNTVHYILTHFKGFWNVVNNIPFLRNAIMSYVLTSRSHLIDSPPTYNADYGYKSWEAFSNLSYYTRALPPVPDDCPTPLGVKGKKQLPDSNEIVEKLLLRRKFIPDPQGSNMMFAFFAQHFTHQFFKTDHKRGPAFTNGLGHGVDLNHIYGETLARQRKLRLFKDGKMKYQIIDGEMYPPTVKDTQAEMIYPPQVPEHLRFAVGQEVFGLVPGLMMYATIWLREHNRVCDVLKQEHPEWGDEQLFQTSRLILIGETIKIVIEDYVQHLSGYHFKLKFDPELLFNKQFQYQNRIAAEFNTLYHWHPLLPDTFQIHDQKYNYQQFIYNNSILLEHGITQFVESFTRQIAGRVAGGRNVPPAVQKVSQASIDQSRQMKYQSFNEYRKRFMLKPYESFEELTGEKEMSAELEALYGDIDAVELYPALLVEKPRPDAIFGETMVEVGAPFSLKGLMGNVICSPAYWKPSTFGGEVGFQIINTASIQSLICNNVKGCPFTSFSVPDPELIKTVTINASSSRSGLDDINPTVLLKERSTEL
# Chain of ovine COX-1 (P05979 25-600): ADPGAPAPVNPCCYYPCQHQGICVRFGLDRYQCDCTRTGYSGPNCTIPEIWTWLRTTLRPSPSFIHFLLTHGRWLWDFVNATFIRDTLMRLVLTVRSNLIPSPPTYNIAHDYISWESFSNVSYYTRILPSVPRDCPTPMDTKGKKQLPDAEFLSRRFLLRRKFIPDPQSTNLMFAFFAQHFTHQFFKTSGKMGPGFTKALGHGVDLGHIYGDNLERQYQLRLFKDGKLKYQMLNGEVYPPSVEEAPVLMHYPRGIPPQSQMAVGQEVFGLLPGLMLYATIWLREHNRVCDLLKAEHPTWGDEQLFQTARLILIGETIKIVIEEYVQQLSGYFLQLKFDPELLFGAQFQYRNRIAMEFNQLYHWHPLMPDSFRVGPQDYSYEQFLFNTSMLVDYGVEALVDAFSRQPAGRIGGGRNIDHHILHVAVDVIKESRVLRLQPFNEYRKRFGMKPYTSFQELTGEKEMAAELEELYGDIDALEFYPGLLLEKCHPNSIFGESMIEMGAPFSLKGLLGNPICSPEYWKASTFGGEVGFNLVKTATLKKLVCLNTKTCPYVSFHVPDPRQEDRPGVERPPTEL
# Chain of Rat FAAH (P97612 whole entry): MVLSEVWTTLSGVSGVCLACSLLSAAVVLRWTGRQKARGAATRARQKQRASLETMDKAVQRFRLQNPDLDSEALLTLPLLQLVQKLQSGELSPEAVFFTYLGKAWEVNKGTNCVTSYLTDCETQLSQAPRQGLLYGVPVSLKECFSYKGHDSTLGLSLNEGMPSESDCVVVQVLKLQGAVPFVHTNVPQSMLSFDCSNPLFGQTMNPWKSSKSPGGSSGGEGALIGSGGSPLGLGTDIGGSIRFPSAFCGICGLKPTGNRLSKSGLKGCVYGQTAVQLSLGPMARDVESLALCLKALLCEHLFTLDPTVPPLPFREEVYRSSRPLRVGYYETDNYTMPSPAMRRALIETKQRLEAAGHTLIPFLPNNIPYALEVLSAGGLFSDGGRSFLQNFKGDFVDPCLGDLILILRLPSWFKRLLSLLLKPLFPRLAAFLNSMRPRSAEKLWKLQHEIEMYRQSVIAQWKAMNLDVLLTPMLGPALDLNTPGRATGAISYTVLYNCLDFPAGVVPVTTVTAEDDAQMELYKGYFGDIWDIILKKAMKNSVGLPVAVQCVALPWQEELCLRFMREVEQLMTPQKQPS
# Chain of human FAAH-1 (O00519 whole entry): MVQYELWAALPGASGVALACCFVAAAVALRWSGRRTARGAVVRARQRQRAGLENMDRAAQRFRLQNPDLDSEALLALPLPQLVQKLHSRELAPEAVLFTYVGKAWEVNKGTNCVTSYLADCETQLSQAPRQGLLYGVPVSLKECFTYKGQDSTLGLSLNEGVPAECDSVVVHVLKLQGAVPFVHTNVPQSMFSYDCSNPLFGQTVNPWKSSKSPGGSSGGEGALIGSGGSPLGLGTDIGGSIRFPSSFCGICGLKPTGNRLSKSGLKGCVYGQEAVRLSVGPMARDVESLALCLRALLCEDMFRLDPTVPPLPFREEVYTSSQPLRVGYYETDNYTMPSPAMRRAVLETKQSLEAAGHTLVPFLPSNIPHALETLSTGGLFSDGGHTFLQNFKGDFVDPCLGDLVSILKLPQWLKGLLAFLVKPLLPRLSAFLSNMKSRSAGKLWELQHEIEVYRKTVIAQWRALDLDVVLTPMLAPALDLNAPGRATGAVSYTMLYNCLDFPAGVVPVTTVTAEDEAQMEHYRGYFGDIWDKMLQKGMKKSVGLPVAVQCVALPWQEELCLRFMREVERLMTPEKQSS
Compound,IC50 (ovine COX-1) [nM],IC50 (human FAAH-1) [nM],IC50 (Rat FAAH) [nM],IC50 (human recombinant COX-2; [3]) [nM],other results
"CCCCCCNC(=O)Oc1cccc(-c2ccc(C(C)C(=O)O)cc2F)c1 (stereo not drawn) [Example 12, 2-[3-fluoro-4-[3-(hexylcarbamoyloxy)phenyl]phenyl]propanoic acid]",12,–,–,–,"ulcerogenic effect (gastric mucosa; oral, up to 100 mg/kg): no ulcerogenic effect; ED50 ([1]; Mus musculus, read-out: ED50 on edema (Δ volume paw)): 10 mg/kg; ED50 ([1]; Mus musculus, read-out: ED50 on thermal hyperalgesia (withdrawal latency)): 10 mg/kg; effect on carrageenan-induced inflammation and hyperalgesia [1, 2]: dose-dependent and persistent suppression; potency at inhibiting the responses induced by carrageenan, compared with compound A [1, 2]: more potent than oral compound A"
"CC(C(=O)O)c1ccc(-c2ccccc2)c(F)c1 (stereo not drawn) [Compound A, flurbiprofen, reference compound]",–,–,–,–,"gastric irritation and gastric ulcers (gastric mucosa; oral 30 mg/kg): profound gastric irritation and appearance of gastric ulcers; ED50 ([1]; oral, mouse carrageenan model, read-out: ED50 on edema (Δ volume paw)): 30 mg/kg; ED50 ([1]; oral, mouse carrageenan model, read-out: ED50 on thermal hyperalgesia (withdrawal latency)): 30 mg/kg"
Cc1cccnc1NC(=O)C(C)c1ccc(CC(C)C)cc1 (stereo not drawn) [Ibu-am5],–,–,–,–,IC50 (FAAH): 2700 nM
"CCCCCCCCNC(=O)Oc1cccc(-c2ccc(C(C)C(=O)O)cc2F)c1 (stereo not drawn) [Example 14, 2-[3-fluoro-4-[3-(octylcarbamoyloxy)phenyl]phenyl]propanoic acid]",990,4,2.6,29000,–
"CCCCCCNC(=O)Oc1cccc(-c2ccc(CC(=O)O)cc2F)c1 [Example 16, 2-[3-fluoro-4-[3-(hexylcarbamoyloxy)phenyl]phenyl]acetic acid]",2100,16,63,240,–
"CCCCCCCNC(=O)Oc1cccc(-c2ccc(C(C)C(=O)O)cc2F)c1 (stereo not drawn) [Example 13, 2-[3-fluoro-4-[3-(heptylcarbamoyloxy)phenyl]phenyl]propanoic acid]",370,6,11,320,–
"CCCCCCNC(=O)Oc1ccccc1-c1ccc(C(C)C(=O)O)cc1F (stereo not drawn) [Example 17, 2-[3-fluoro-4-[2-(hexylcarbamoyloxy)phenyl]phenyl]propanoic acid]",720,740,2200,–,IC50 (human recombinant COX-2): > 30000 nM
"CCCCCCOC(=O)Nc1cccc(-c2ccc(C(C)C(=O)O)cc2F)c1 (stereo not drawn) [Example 18, 2-[3-fluoro-4-[3-(hexoxycarbonylamino)phenyl]phenyl]propanoic acid]",30,21000,15000,170,–
